Assay results published in ChEMBL document CHEMBL1201862, “PubChem BioAssay data set” (2004).
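In this assay, cells in 96-well plates receive the compound at five concentrations for 48 hours. Endpoints are linearly interpolated between the surrounding concentrations. GI50 marks 50% less growth.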 Activity calls are given as the source filed them. Cut-off read from the data, not from the text of the source: active = GI50 up to about 1.1 µM and inactive = higher.

How the values were obtained:
Experiment in all cases: DTP human tumour cell line panel, 48 h
[1] = system: IGROV-1
[2] = system: HL-60
[3] = system: KM12
[4] = system: MOLT-4
[5] = system: SN12C
[6] = system: NCI-H226
[7] = system: SK-MEL-5
[8] = system: UO-31
[9] = system: SW-620
[10] = system: SK-OV-3
[11] = system: HOP-62
[12] = system: ACHN
[13] = system: OVCAR-8
[14] = system: LOX IMVI
[15] = system: NCI-H522
[16] = system: U-251

Measured: GI50

O=C1Cc2c([nH]c3ccccc23)-c2cc(Br)ccc2N1
inactive: [1] > 100 µM | [2] > 100 µM | [3] > 100 µM | [4] > 100 µM | [5] > 100 µM | [6] > 100 µM | [7] > 100 µM | [8] > 100 µM | [9] > 100 µM | [10] > 100 µM | [11] > 100 µM | [12] > 100 µM | [13] > 100 µM | [14] > 100 µM | [15] > 100 µM | [16] > 100 µM

CC(/C=C/C(=O)c1sc(C(N)=S)nc1C)=C\c1ccccc1
inactive: [1] > 100 µM | [2] > 100 µM | [3] > 100 µM | [4] > 100 µM | [5] > 100 µM | [6] > 100 µM | [7] > 100 µM | [8] > 100 µM | [10] > 100 µM | [11] > 100 µM | [12] 81.8 µM | [13] > 100 µM | [14] 18.2 µM | [15] 81.8 µM | [16] > 100 µM

CCOC(=O)C12CCCC1(O)N(NC(=O)c1ccccc1)C(C)=C2C(=O)OC (configuration not stated)
inactive: [1] > 100 µM | [2] > 100 µM | [3] > 100 µM | [4] > 100 µM | [5] > 100 µM | [6] > 100 µM | [8] > 100 µM | [9] > 100 µM | [10] > 100 µM | [11] > 100 µM | [12] > 100 µM | [13] > 100 µM | [14] > 100 µM | [15] > 100 µM | [16] > 100 µM

NC(=O)NNC(=O)NC12CC3CC(CC(C3)C1)C2
inactive: [1] > 100 µM | [2] > 100 µM | [3] > 100 µM | [4] > 100 µM | [5] > 100 µM | [6] > 100 µM | [7] > 100 µM | [8] > 100 µM | [9] > 100 µM | [10] > 100 µM | [11] > 100 µM | [12] > 100 µM | [13] > 100 µM | [14] > 100 µM | [15] > 100 µM | [16] > 100 µM

COc1cc2c(oc(=O)c3c4oc([Si](C)(C)C)cc4cc(OC)c23)c2cccc(O)c12
inactive: [1] > 100 µM | [2] > 100 µM | [3] > 100 µM | [4] > 100 µM | [5] > 100 µM | [6] > 100 µM | [7] > 100 µM | [8] > 100 µM | [9] > 100 µM | [10] > 100 µM | [11] > 100 µM | [12] > 100 µM | [13] > 100 µM | [14] > 100 µM | [15] > 100 µM | [16] > 100 µM

COC(=O)OCC1OC(N2C(=O)NC(=O)C(I)C2N=[N+]=[N-])CC1OC(=O)OC (configuration not stated)
inactive: [1] > 100 µM | [2] > 100 µM | [3] > 100 µM | [4] > 100 µM | [5] > 100 µM | [6] > 100 µM | [7] > 100 µM | [8] > 100 µM | [9] > 100 µM | [10] > 100 µM | [11] > 100 µM | [12] > 100 µM | [13] > 100 µM | [14] > 100 µM | [15] > 100 µM | [16] > 100 µM

COc1ccc(/C=C/c2cc(OC)cc(OC)c2)cc1 [TRISMETHOXYRESVERATROL]
inactive: [1] 6.44 µM | [2] 2.56 µM | [3] 4.17 µM | [4] 4.51 µM | [5] 9.95 µM | [6] 5.43 µM | [7] 4.23 µM | [8] 18.2 µM | [9] 4.98 µM | [10] 4.14 µM | [11] 4.92 µM | [12] 7.08 µM | [13] 22.1 µM | [14] 6.7 µM | [15] 2.68 µM | [16] 4.06 µM

CC(C)CC12CC3CCC(CNC1=O)C32C (configuration not stated)
inactive: [1] > 100 µM | [2] 31.9 µM | [3] > 100 µM | [4] 40.5 µM | [5] > 100 µM | [6] > 100 µM | [7] > 100 µM | [8] > 100 µM | [9] > 100 µM | [10] > 100 µM | [11] > 100 µM | [12] > 100 µM | [13] > 100 µM | [14] > 100 µM | [15] > 100 µM | [16] > 100 µM

CC(C)(C)/N=N/C(C)(C)N=C=O
inactive: [1] > 100 µM | [2] > 100 µM | [3] > 100 µM | [4] > 100 µM | [5] > 100 µM | [6] > 100 µM | [7] > 100 µM | [8] > 100 µM | [9] > 100 µM | [10] > 100 µM | [11] > 100 µM | [12] > 100 µM | [13] > 100 µM | [14] > 100 µM | [15] > 100 µM | [16] > 100 µM
